The nature of assay [1]: Substrate activity at ADH101 (unknown origin) assessed as specific enzyme activity using NADH as cofactor at 2.5 to 10 mM measured for 30 mins in presence of Tris HCL buffer by UV-Vis spectroscopy analysis. The note with it: dose 2.5-10 mM.
Assay [2] is described as follows: Substrate activity at ADH101 (unknown origin) assessed as specific enzyme activity using NADH as cofactor at 2.5 to 10 mM measured for 30 mins in presence of 20% hexane-Tris HCL buffer by UV-Vis spectroscopy analysis. The note with it: Homo sapiens, dose 2.5-10 mM.
A short description of assay [3]: Substrate activity at ADH105 (unknown origin) assessed as specific enzyme activity using NADH as cofactor at 2.5 to 10 mM measured for 30 mins in presence of 20% hexane-Tris HCL buffer by UV-Vis spectroscopy analysis. Particulars: dose 2.5-10 mM.
Assay [4] is described as follows: Substrate activity at ADH105 (unknown origin) assessed as specific enzyme activity using NADH as cofactor at 2.5 to 10 mM measured for 30 mins in presence of Tris HCL buffer by UV-Vis spectroscopy analysis. Particulars: Homo sapiens, dose 2.5-10 mM.
Assay [5] is described as follows: Substrate activity at ADH19 (unknown origin) assessed as specific enzyme activity using NADPH as cofactor at 2.5 to 10 mM measured for 30 mins in presence of Tris HCL buffer by UV-Vis spectroscopy analysis. Particulars: Homo sapiens, dose 2.5-10 mM.
Assay [6] can be described thus: Substrate activity at ADH20 (unknown origin) assessed as specific enzyme activity using NADPH as cofactor at 2.5 to 10 mM measured for 30 mins in presence of Tris HCL buffer by UV-Vis spectroscopy analysis. The note with it: Homo sapiens, dose 2.5-10 mM.
Assay [7] in a line: Substrate activity at ADH61 (unknown origin) assessed as specific enzyme activity using NADPH as cofactor at 2.5 to 10 mM measured for 30 mins in presence of Tris HCL buffer by UV-Vis spectroscopy analysis. Particulars: Homo sapiens, dose 2.5-10 mM.
Assay [8] in a line: Substrate activity at ADH150 (unknown origin) assessed as specific enzyme activity using NADPH as cofactor at 2.5 to 10 mM measured for 30 mins in presence of Tris HCL buffer by UV-Vis spectroscopy analysis. The note with it: Homo sapiens, dose 2.5-10 mM.

Regarding `CC(=O)c1ccc2ccccc2c1`, the Activity in assay [1] worked out at 7.68 nmol/min/mg; in assay [2], 37 nmol/min/mg; in assay [3] it was 54 nmol/min/mg.
Turning to `CC(=O)c1cncnc1`, the Activity in assay [2] amounted to 45.2 nmol/min/mg; in assay [3], 50.5 nmol/min/mg.
For `CC(=O)c1ccc(Br)c(F)c1`, the Activity in assay [1] amounted to 46.3 nmol/min/mg; in assay [2] it was 103 nmol/min/mg; in assay [3], 242 nmol/min/mg.
In the same order, the values of `CC(=O)c1ccc(Br)cc1F` are 15.9 nmol/min/mg, 57.7 nmol/min/mg and 366 nmol/min/mg.
`CC(=O)c1cccc(O)c1`: the Activity was 4.76 nmol/min/mg in assay [1], 82.4 nmol/min/mg in assay [4], 14.8 nmol/min/mg in assay [2] and 157 nmol/min/mg in assay [3].
In the same order, the values of `CC(=O)c1cc(C(F)(F)F)cc(C(F)(F)F)c1` are 4.51 nmol/min/mg, 29.6 nmol/min/mg, 17.4 nmol/min/mg and 57.3 nmol/min/mg.
`O=c1[nH]c(=O)c2nc[nH]c2[nH]1`: the values for the Activity in assay [1], in assay [4] and in assay [3] were 319 nmol/min/mg, 9.28 nmol/min/mg and 15.9 nmol/min/mg, respectively.
Regarding `COc1cc(OC)cc(C(C)=O)c1`, the Activity in assay [2] is 59.2 nmol/min/mg; in assay [3], 363 nmol/min/mg.
In the case of `O=C(c1ccccc1)C(F)(F)F`, the Activity in assay [1] worked out at 9.22 nmol/min/mg; in assay [4], 19.1 nmol/min/mg; in assay [2], 46.2 nmol/min/mg; in assay [3], 29.4 nmol/min/mg.
With `CC(=O)c1ccc(C[C@H](N)C(=O)O)cc1`, the Activity in assay [5] came to 7.76 nmol/min/mg; in assay [6], 55.7 nmol/min/mg; in assay [7], 123 nmol/min/mg; in assay [8], 33.7 nmol/min/mg; in assay [2], 10.2 nmol/min/mg; in assay [3] it was 62.2 nmol/min/mg.
In the case of `COc1ccc(C(C)=O)cc1OC`, the Activity was 59.8 nmol/min/mg in assay [2] and 220 nmol/min/mg in assay [3].
Take `CC(=O)c1ccc(F)nc1`: the Activity in assay [1] is 24.7 nmol/min/mg; in assay [4] it was 182 nmol/min/mg; in assay [2] it was 51 nmol/min/mg; in assay [3], 137 nmol/min/mg.
Taken in the same sequence, the figures for `O=C(CBr)c1ccccc1` were 44.6 nmol/min/mg, 18.7 nmol/min/mg, 89.2 nmol/min/mg and 337 nmol/min/mg.
For the compound `CNCC(=O)c1cccc(O)c1`, the Activity worked out at 20.8 nmol/min/mg in assay [4]; 6.78 nmol/min/mg in assay [5]; 67.2 nmol/min/mg in assay [6]; 38.6 nmol/min/mg in assay [8]; 12.4 nmol/min/mg in assay [2]; 17.4 nmol/min/mg in assay [3].
As for `CC(=O)C1CC1`, the Activity was 82.8 nmol/min/mg in assay [2] and 98.2 nmol/min/mg in assay [3].
On to `CC(=O)c1ccc(N)cc1`, for which the Activity in assay [1] amounted to 5.03 nmol/min/mg; in assay [4], 21.3 nmol/min/mg; in assay [2], 43.9 nmol/min/mg; in assay [3], 80.4 nmol/min/mg.
For the compound `CC(=O)c1cc[nH]n1`, the Activity in assay [5] came out at 10.3 nmol/min/mg; in assay [6], 24.1 nmol/min/mg; in assay [7], 10.7 nmol/min/mg; in assay [8], 11.8 nmol/min/mg; in assay [2] it was 5.6 nmol/min/mg; in assay [3] it was 20.7 nmol/min/mg.
For the compound `COc1ccccc1C(C)=O`, the Activity came to 2.46 nmol/min/mg in assay [1], 13.4 nmol/min/mg in assay [4] and 83 nmol/min/mg in assay [3].
Turning to `O=C1CN2CCC1CC2`, the Activity in assay [4] worked out at 13 nmol/min/mg; in assay [2], 85.3 nmol/min/mg; in assay [3], 23.4 nmol/min/mg.
For the compound `CC(=O)c1cccnc1`, the Activity in assay [1] is 9.45 nmol/min/mg; in assay [4], 121 nmol/min/mg; in assay [2], 34 nmol/min/mg; in assay [3] it was 163 nmol/min/mg.
Regarding `COc1cccc(C(C)=O)c1`, the results for the Activity in assay [2] and in assay [3] were 13.8 nmol/min/mg and 397 nmol/min/mg, respectively.
For the compound `CC(=O)c1ccc(Br)cc1O`, the Activity is 112 nmol/min/mg in assay [1], 10 nmol/min/mg in assay [2] and 27.2 nmol/min/mg in assay [3].
In the same order, the values of `CC(=O)CCc1ccccc1` are 109 nmol/min/mg, 95.7 nmol/min/mg and 364 nmol/min/mg.
For the compound `O=C(c1ccccc1)c1ccccc1`, the Activity in assay [1] worked out at 35.7 nmol/min/mg; in assay [4], 12.8 nmol/min/mg; in assay [6], 41.1 nmol/min/mg; in assay [8] it was 69.9 nmol/min/mg; in assay [2] it was 73.9 nmol/min/mg; in assay [3], 14.3 nmol/min/mg.
Take `CC(=O)c1ccc(B2OC(C)(C)C(C)(C)O2)cc1`: the Activity was 465 nmol/min/mg in assay [2] and 87 nmol/min/mg in assay [3].
As to `CC(=O)c1ccccc1O`, the values for the Activity in assay [1] and in assay [4] were 11.3 nmol/min/mg and 23.1 nmol/min/mg, respectively.
As for `COc1ccc(C(C)=O)cc1`, the Activity was determined as 24.6 nmol/min/mg in assay [2] and 221 nmol/min/mg in assay [3].
In the same order, the values of `CC(=O)c1cnccn1` are 53.2 nmol/min/mg and 185 nmol/min/mg.
Taken in the same sequence, the figures for `CC(=O)C1CCCC1` were 123 nmol/min/mg and 218 nmol/min/mg.
Regarding `CC(=O)c1ccc(O)cc1`, the Activity in assay [4] was found to be 39.5 nmol/min/mg; in assay [5], 12.8 nmol/min/mg; in assay [7], 12.7 nmol/min/mg; in assay [3], 31.5 nmol/min/mg.
In the case of `CC(=O)c1ccccc1Br`, the Activity was 75.1 nmol/min/mg in assay [1], 6.37 nmol/min/mg in assay [4], 38 nmol/min/mg in assay [2] and 39.5 nmol/min/mg in assay [3].
As to `CCOc1ccc(C(C)=O)cc1`, the Activity in assay [1] turned out to be 4.37 nmol/min/mg; in assay [4] it was 81.1 nmol/min/mg; in assay [2], 19.9 nmol/min/mg; in assay [3], 196 nmol/min/mg.
Taken in the same sequence, the figures for `CC(=O)c1ccc(Br)cc1` were 38.1 nmol/min/mg, 56.1 nmol/min/mg, 73.1 nmol/min/mg and 158 nmol/min/mg.
Consider `COc1cc(C(C)=O)cc(OC)c1OC`, for which the Activity in assay [1] was 11.7 nmol/min/mg; in assay [4], 154 nmol/min/mg; in assay [3] it was 89.9 nmol/min/mg.
For the compound `CC(=O)c1ccc(I)cc1`, the Activity in assay [2] stood at 51.3 nmol/min/mg; in assay [3], 117 nmol/min/mg.
On to `CC(=O)c1ccc(F)cc1`, for which the Activity in assay [1] turned out to be 26.4 nmol/min/mg; in assay [4], 86.4 nmol/min/mg; in assay [2] it was 22.9 nmol/min/mg; in assay [3], 122 nmol/min/mg.
In the same order, the values of `CC(=O)C1CCCCC1` are 167 nmol/min/mg, 233 nmol/min/mg, 52.3 nmol/min/mg and 112 nmol/min/mg.
In the same order, the values of `CC(=O)c1ccccc1` are 43.1 nmol/min/mg, 142 nmol/min/mg, 54.1 nmol/min/mg and 99.1 nmol/min/mg.
Regarding `CC(=O)c1cc(F)ccc1O`, in assay [2], the Activity is 42.8 nmol/min/mg.
`CC(=O)c1ccc(NS(C)(=O)=O)cc1`: the Activity in assay [3] stood at 203 nmol/min/mg.
As for `O=C(CCl)c1ccc(F)c(F)c1`, the Activity in assay [1] was found to be 83.1 nmol/min/mg; in assay [4] it was 131 nmol/min/mg; in assay [2], 87.1 nmol/min/mg; in assay [3], 112 nmol/min/mg.
`CC(=O)c1cnc2ccccc2c1`: the Activity in assay [2] came to 13.7 nmol/min/mg; in assay [3] it was 229 nmol/min/mg.
Regarding `CC(=O)Cc1ccccc1`, the Activity is 5.98 nmol/min/mg in assay [1], 274 nmol/min/mg in assay [4], 22.2 nmol/min/mg in assay [2] and 239 nmol/min/mg in assay [3].
On to `CC(C)(C)NCC(=O)c1cc(Cl)c(N)c(Cl)c1`, for which the Activity stood at 10.4 nmol/min/mg in assay [5]; 18.8 nmol/min/mg in assay [6]; 29 nmol/min/mg in assay [7]; 6.55 nmol/min/mg in assay [8]; 34.6 nmol/min/mg in assay [3].
As for `COc1ccc2[nH]cc(CCNC(C)=O)c2c1`, the Activity in assay [3] was 21.7 nmol/min/mg.
Turning to `CC(=O)c1ccccn1`, the Activity in assay [1] stood at 22.2 nmol/min/mg; in assay [4], 70.4 nmol/min/mg; in assay [2] it was 35.5 nmol/min/mg; in assay [3], 60.3 nmol/min/mg.
On to `CCCCCCCCC(C)=O`, for which the Activity in assay [1] came out at 39.5 nmol/min/mg; in assay [4], 8.95 nmol/min/mg; in assay [2], 25.7 nmol/min/mg; in assay [3], 37.1 nmol/min/mg.
For the compound `CC(=O)c1ccc(Br)nc1`, the Activity came out at 33.2 nmol/min/mg in assay [2] and 269 nmol/min/mg in assay [3].
As to `CC(=O)c1cccc(Br)c1`, the Activity in assay [1] is 19.9 nmol/min/mg; in assay [4] it was 1.9 nmol/min/mg; in assay [2], 12.2 nmol/min/mg; in assay [3] it was 142 nmol/min/mg.
Consider `CC(=O)c1ccc([N+](=O)[O-])cc1`, for which the results for the Activity in assay [1], in assay [2] and in assay [3] were 99.9 nmol/min/mg, 130 nmol/min/mg and 593 nmol/min/mg, respectively.
Regarding `CC(=O)c1ccc(Cl)nc1`, the Activity in assay [1] turned out to be 32.2 nmol/min/mg; in assay [4] it was 371 nmol/min/mg; in assay [2], 62.5 nmol/min/mg; in assay [3], 92 nmol/min/mg.
Taken in the same sequence, the figures for `CCc1ccc(OC)c(C(C)=O)c1` were 49.8 nmol/min/mg, 14.1 nmol/min/mg, 52.9 nmol/min/mg and 64 nmol/min/mg.
On to `CC(=O)/C=C/c1ccccc1`, for which the Activity in assay [1] is 60.7 nmol/min/mg; in assay [4], 6.97 nmol/min/mg; in assay [2], 67.2 nmol/min/mg; in assay [3] it was 62.1 nmol/min/mg.
Consider `CC(=O)c1ccc(C(F)(F)F)nc1`, for which the values for the Activity in assay [2] and in assay [3] were 80.9 nmol/min/mg and 210 nmol/min/mg, respectively.
In the same order, the values of `CC(=O)c1nccn1C` are 14.7 nmol/min/mg and 20.7 nmol/min/mg.
Turning to `CC(=O)c1ccc2c(c1)OCO2`, the Activity in assay [1] is 17.7 nmol/min/mg; in assay [4], 70.1 nmol/min/mg; in assay [2], 34.2 nmol/min/mg; in assay [3] it was 189 nmol/min/mg.
As to `CC(=O)c1cccc(C#N)c1`, the Activity in assay [2] stood at 57.4 nmol/min/mg; in assay [3], 173 nmol/min/mg.
